Laboratory results: patent US20260034112A1, “MULTI-CYCLIC IRAK1 AND IRAK4 INHIBITING COMPOUNDS AND USES THEREOF” (CHILDREN'S HOSPITAL MEDICAL CENTER, priority 2022, published 2026)

System: THP1 cells
Type: cell-based, human

Structure (SMILES): Cc1cc(-c2nc(C(=O)Nc3cc4oc(N5CCOCC5)nc4nc3N3CC[C@@H](O)C3)co2)ccn1 [CA-4948, emavusertib]
- Log(FC) of gene KCNH2: −0.6125
- Log(FC) of gene ABCC2 (CA-4948 vs DMSO in THP1 cells): 0.6855
- Log(FC) of gene AC016629.8 (CA-4948 vs DMSO in THP1 cells): 0.586
- Log(FC) of gene AC093391.2 (CA-4948 vs DMSO in THP1 cells): 0.7835
- Log(FC) of gene ADAM8 (CA-4948 vs DMSO in THP1 cells): 0.6886
- Log(FC) of gene ADAM19 (CA-4948 vs DMSO in THP1 cells): 0.5984
- Log(FC) of gene ADCY4 (CA-4948 vs DMSO in THP1 cells): 1.023
- Log(FC) of gene AMH (CA-4948 vs DMSO in THP1 cells): 0.7789
- Log(FC) of gene ANKFN1 (CA-4948 vs DMSO in THP1 cells): 0.6129
- Log(FC) of gene ANKRD34A (CA-4948 vs DMSO in THP1 cells): 0.9288
- Log(FC) of gene AP3B2 (CA-4948 vs DMSO in THP1 cells): 0.7192
- Log(FC) of gene AP000330.8 (CA-4948 vs DMSO in THP1 cells): 0.7147
- Log(FC) of gene APOE (CA-4948 vs DMSO in THP1 cells): 0.6335
- Log(FC) of gene APOLD1 (CA-4948 vs DMSO in THP1 cells): 0.7365
- Log(FC) of gene ARID3C (CA-4948 vs DMSO in THP1 cells): 0.8751
- Log(FC) of gene ARL17B (CA-4948 vs DMSO in THP1 cells): 0.6318
- Log(FC) of gene ARTN (CA-4948 vs DMSO in THP1 cells): 0.6881
- Log(FC) of gene ASIC3 (CA-4948 vs DMSO in THP1 cells): 1.28
- Log(FC) of gene ATP2B3 (CA-4948 vs DMSO in THP1 cells): 0.7931
- Log(FC) of gene AURKB (CA-4948 vs DMSO in THP1 cells): 0.6324
- Log(FC) of gene BRICD5 (CA-4948 vs DMSO in THP1 cells): 0.6636
- Log(FC) of gene BTBD19 (CA-4948 vs DMSO in THP1 cells): 0.6939
- Log(FC) of gene BVES-AS1 (CA-4948 vs DMSO in THP1 cells): 0.5945
- Log(FC) of gene BZRAP1 (CA-4948 vs DMSO in THP1 cells): 1.334
- Log(FC) of gene C1orf51 (CA-4948 vs DMSO in THP1 cells): 1.033
- Log(FC) of gene C2orf48 (CA-4948 vs DMSO in THP1 cells): 0.606
- Log(FC) of gene C5orf56 (CA-4948 vs DMSO in THP1 cells): 0.7488
- Log(FC) of gene C9orf37 (CA-4948 vs DMSO in THP1 cells): 0.6108
- Log(FC) of gene C15orf62 (CA-4948 vs DMSO in THP1 cells): 0.8673
- Log(FC) of gene C16orf86 (CA-4948 vs DMSO in THP1 cells): 0.6351
- Log(FC) of gene CACTIN-AS1 (CA-4948 vs DMSO in THP1 cells): 0.7321
- Log(FC) of gene CATSPER3 (CA-4948 vs DMSO in THP1 cells): 0.6152
- Log(FC) of gene CCDC103 (CA-4948 vs DMSO in THP1 cells): −0.6115
- Log(FC) of gene CCDC109B (CA-4948 vs DMSO in THP1 cells): 0.8991
- Log(FC) of gene CCDC154 (CA-4948 vs DMSO in THP1 cells): 0.7952
- Log(FC) of gene CCDC155 (CA-4948 vs DMSO in THP1 cells): 0.6645
- Log(FC) of gene CCDC183 (CA-4948 vs DMSO in THP1 cells): 0.9658
- Log(FC) of gene CD101 (CA-4948 vs DMSO in THP1 cells): 0.5897
- Log(FC) of gene CD163 (CA-4948 vs DMSO in THP1 cells): −0.5952
- Log(FC) of gene CD302 (CA-4948 vs DMSO in THP1 cells): 0.6021
- Log(FC) of gene CDC42EP2 (CA-4948 vs DMSO in THP1 cells): 0.6518
- Log(FC) of gene CEACAM19 (CA-4948 vs DMSO in THP1 cells): 1.259
- Log(FC) of gene CGN (CA-4948 vs DMSO in THP1 cells): 0.9021
- Log(FC) of gene CHN2 (CA-4948 vs DMSO in THP1 cells): 0.8531
- Log(FC) of gene CHRFAM7A (CA-4948 vs DMSO in THP1 cells): −0.9429
- Log(FC) of gene CILP2 (CA-4948 vs DMSO in THP1 cells): 0.8989
- Log(FC) of gene CLDN15 (CA-4948 vs DMSO in THP1 cells): 0.6387
- Log(FC) of gene CLEC10A (CA-4948 vs DMSO in THP1 cells): 0.6157
- Log(FC) of gene CLEC12B (CA-4948 vs DMSO in THP1 cells): 0.7555
- Log(FC) of gene CLK1 (CA-4948 vs DMSO in THP1 cells): 1.08
- Log(FC) of gene CLK3 (CA-4948 vs DMSO in THP1 cells): 0.9323
- Log(FC) of gene CLK4 (CA-4948 vs DMSO in THP1 cells): 0.8127
- Log(FC) of gene CMTM1 (CA-4948 vs DMSO in THP1 cells): 1.158
- Log(FC) of gene CNIH2 (CA-4948 vs DMSO in THP1 cells): 0.9526
- Log(FC) of gene CNKSR1 (CA-4948 vs DMSO in THP1 cells): 0.9226
- Log(FC) of gene COL7A1 (CA-4948 vs DMSO in THP1 cells): 1.605
- Log(FC) of gene CPNE5 (CA-4948 vs DMSO in THP1 cells): 0.7008
- Log(FC) of gene CPT1B (CA-4948 vs DMSO in THP1 cells): 1.318
- Log(FC) of gene CRABP2 (CA-4948 vs DMSO in THP1 cells): 3.095
- Log(FC) of gene CTRL (CA-4948 vs DMSO in THP1 cells): 1.027
- Log(FC) of gene DCAF4L1 (CA-4948 vs DMSO in THP1 cells): 1.097
- Log(FC) of gene DCAKD (CA-4948 vs DMSO in THP1 cells): 0.6901
- Log(FC) of gene DCST2 (CA-4948 vs DMSO in THP1 cells): 1.278
- Log(FC) of gene DDB2 (CA-4948 vs DMSO in THP1 cells): 0.5883
- Log(FC) of gene DEGS2 (CA-4948 vs DMSO in THP1 cells): 0.6503
- Log(FC) of gene DMPK (CA-4948 vs DMSO in THP1 cells): 0.6345
- Log(FC) of gene DNAH1 (CA-4948 vs DMSO in THP1 cells): 0.6015
- Log(FC) of gene DNAJC27-AS1 (CA-4948 vs DMSO in THP1 cells): 0.6304
- Log(FC) of gene DNASE1L2 (CA-4948 vs DMSO in THP1 cells): 1.008
- Log(FC) of gene DND1 (CA-4948 vs DMSO in THP1 cells): 1.389
- Log(FC) of gene DNHD1 (CA-4948 vs DMSO in THP1 cells): 1.083
- Log(FC) of gene DRP2 (CA-4948 vs DMSO in THP1 cells): 0.9019
- Log(FC) of gene EFCAB12 (CA-4948 vs DMSO in THP1 cells): 1.697
- Log(FC) of gene EGFR (CA-4948 vs DMSO in THP1 cells): 0.882
- Log(FC) of gene EIF3CL (CA-4948 vs DMSO in THP1 cells): 0.7466
- Log(FC) of gene ELMO3 (CA-4948 vs DMSO in THP1 cells): 0.7963
- Log(FC) of gene ENHO (CA-4948 vs DMSO in THP1 cells): 0.7452
